# Laboratory results published in patent US20250074891A1 (Anaxis Pharma Pty Ltd., priority 2021, published 2025).
# Columns and labels:
# Details in all cases: Table 35
# MLKL (full length) = MLKL (full length) (Homo sapiens (Human), UniProt Q8NB16); experiment: KINOMEscan binding assay, MLKL (full length)
# Method: (§1) Kinase assays. For most assays, kinase-tagged T7 phage strains were grown in parallel in 24-well blocks in an E. coli host derived from the BL21 strain. E. coli were grown to log-phase and infected with T7 phage from a frozen stock (multiplicity of infection=0.4) and incubated with shaking at 32° C. until lysis (90-150 minutes).
# (§2) The Hill Slope was set to −1.
# RIP1 = RIP1 (Homo sapiens (Human), UniProt Q13546); experiment: KINOMEscan binding assay, RIP1
# RIP1, sequence (Q13546 whole entry): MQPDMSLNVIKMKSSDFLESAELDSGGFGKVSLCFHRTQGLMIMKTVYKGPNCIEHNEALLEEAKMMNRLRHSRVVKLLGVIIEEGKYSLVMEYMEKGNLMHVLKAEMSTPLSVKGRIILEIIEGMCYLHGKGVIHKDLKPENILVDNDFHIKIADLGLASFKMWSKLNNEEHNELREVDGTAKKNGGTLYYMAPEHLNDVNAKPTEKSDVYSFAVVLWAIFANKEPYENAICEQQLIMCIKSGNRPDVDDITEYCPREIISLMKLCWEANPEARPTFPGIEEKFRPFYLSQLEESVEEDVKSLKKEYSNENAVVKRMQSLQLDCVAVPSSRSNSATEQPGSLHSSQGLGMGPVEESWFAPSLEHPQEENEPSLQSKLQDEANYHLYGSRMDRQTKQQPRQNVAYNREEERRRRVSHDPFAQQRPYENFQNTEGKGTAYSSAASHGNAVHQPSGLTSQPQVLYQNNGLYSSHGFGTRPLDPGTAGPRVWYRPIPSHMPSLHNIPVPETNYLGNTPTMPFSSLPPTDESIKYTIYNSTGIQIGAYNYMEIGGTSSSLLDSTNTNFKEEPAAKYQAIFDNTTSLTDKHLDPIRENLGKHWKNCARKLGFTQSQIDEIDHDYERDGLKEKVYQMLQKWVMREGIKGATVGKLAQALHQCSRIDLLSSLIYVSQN
# RIP3 = RIP3 (Homo sapiens (Human), UniProt Q9Y572); experiment: KINOMEscan binding assay, RIP3
# RIP3, sequence (Q9Y572 whole entry): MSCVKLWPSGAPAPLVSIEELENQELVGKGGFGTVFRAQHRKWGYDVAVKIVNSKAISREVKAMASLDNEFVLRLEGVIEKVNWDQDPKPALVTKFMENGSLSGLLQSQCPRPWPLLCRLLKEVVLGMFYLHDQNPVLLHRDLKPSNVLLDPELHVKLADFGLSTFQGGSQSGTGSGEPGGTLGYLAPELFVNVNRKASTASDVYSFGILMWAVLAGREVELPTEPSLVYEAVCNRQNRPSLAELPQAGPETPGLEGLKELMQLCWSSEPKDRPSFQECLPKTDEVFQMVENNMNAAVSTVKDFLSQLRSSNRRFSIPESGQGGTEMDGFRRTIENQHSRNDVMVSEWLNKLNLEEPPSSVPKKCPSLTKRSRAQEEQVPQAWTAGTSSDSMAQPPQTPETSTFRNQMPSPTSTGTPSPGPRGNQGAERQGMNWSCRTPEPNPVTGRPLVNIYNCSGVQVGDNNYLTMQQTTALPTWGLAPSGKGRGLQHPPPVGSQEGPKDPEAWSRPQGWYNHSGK
# Method: as §1, §2
# MLKL (full length), sequence (Q8NB16 whole entry): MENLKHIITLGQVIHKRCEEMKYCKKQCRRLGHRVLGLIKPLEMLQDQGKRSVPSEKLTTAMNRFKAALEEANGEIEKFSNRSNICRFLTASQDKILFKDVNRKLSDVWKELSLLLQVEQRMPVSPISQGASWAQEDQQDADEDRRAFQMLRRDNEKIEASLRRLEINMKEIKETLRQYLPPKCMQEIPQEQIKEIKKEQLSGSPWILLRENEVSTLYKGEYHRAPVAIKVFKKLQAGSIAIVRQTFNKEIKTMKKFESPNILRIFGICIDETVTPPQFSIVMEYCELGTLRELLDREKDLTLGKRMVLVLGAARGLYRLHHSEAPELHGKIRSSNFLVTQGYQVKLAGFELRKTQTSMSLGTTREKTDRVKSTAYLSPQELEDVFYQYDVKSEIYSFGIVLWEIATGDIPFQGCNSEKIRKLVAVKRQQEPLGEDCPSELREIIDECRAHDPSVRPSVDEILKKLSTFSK
Kd (MLKL (full length)) [µM],Kd (RIP1) [µM],Kd (RIP3) [µM],SMILES
< 0.01,> 30,> 30,"NC(=O)c1c(-c2ccc(NS(=O)(=O)C(F)F)c(Oc3ccc(F)cc3)c2)n[nH]c1Nc1cccc(C(F)(F)F)n1 [Compound 147, 3-(4-((difluoromethyl)sulfonamido)-3-(4-fluorophenoxy)phenyl)-5-((6-(trifluoromethyl)pyridine-2-yl)amino)-1H-pyrazole-4-carboxamide]"
< 0.01,> 30,> 30,"CCS(=O)(=O)Nc1ccc(-c2n[nH]c(Nc3cnccn3)c2C(N)=O)cc1OCc1ccc(Cl)cc1 [Compound 42, 3-(3-((4-chlorobenzyl)oxy)-4-(ethylsulfonamido)phenyl)-5-(pyrazin-2-ylamino)-1H-pyrazole-4-carboxamide]"
< 0.01,> 30,> 30,"Cc1cnc(Nc2[nH]nc(-c3ccc(NS(=O)(=O)CC(F)(F)F)c(OCc4ccc(F)cc4)c3)c2C(N)=O)cn1 [Compound 163, 3-(3-((4-fluorobenzyl)oxy)-4-((2,2,2-trifluoroethyl)sulfonamido)phenyl)-5-((5-methylpyrazin-2-yl)amino)-1H-pyrazole-4-carboxamide]"
< 0.01,> 30,> 30,"NC(=O)c1c(-c2ccc(NS(=O)(=O)CC(F)(F)F)c(OCc3ccc(F)cc3)c2)n[nH]c1Nc1cccc(C(F)F)n1 [Compound 173, 5-((6-(difluoromethyl)pyridine-2-yl)amino)-3-(3-((4-fluorobenzyl)oxy)-4-((2,2,2-trifluoroethyl)sulfonamido)phenyl)-1H-pyrazole-4-carboxamide]"
< 0.01,> 30,> 30,"COCC(Oc1cc(-c2n[nH]c(Nc3cc(C)on3)c2C(N)=O)ccc1NS(=O)(=O)C(F)F)c1ccc(F)cc1 (racemic) [Compound 298, 3-(4-((difluoromethyl)sulfonamido)-3-(1-(4-fluorophenyl)-2-methoxyethoxy)phenyl)-5-((5-methylisoxazol-3-yl)amino)-1H-pyrazole-4-carboxamide]"
< 0.01,> 30,> 30,"CCS(=O)(=O)Nc1ccc(-c2n[nH]c(Nc3cnccn3)c2C(N)=O)cc1OCc1ccc(F)cc1 [Compound 62, 3-(4-(ethylsulfonamido)-3-((4-fluorobenzyl)oxy)phenyl) 5-(pyrazin-2-ylamino)-1H pyrazole-4-carboxamide]"
< 0.01,> 30,> 30,NC(=O)c1c(-c2ccc(NS(=O)(=O)C(F)F)c(OCc3ccc(F)c(F)c3)c2)n[nH]c1Nc1ccccn1 [Compound 226]
< 0.01,> 30,> 30,"NC(=O)c1c(-c2ccc(NS(=O)(=O)CC(F)(F)F)c(OCc3ccc(Cl)cc3)c2)n[nH]c1Nc1ccccn1 [Compound 269, 3-{3-[(4-chlorophenyl)methoxy]-4-(2,2,2-trifluoroethanesulfonamido)phenyl}-5-[(pyridin-2-yl)amino]-1H-pyrazole-4-carboxamide]"
< 0.01,> 30,> 30,"N#Cc1cccc(Nc2[nH]nc(-c3ccc(NS(=O)(=O)CC(F)(F)F)cc3)c2C(N)=O)n1 [Compound 237, 5-[(6-cyanopyridin-2-yl)amino]-3-[4-(2,2,2-trifluoroethanesulfonamido)phenyl]-1H-pyrazole-4-carboxamide]"
< 0.01,> 30,> 30,"NC(=O)c1c(-c2ccc(NS(=O)(=O)CC(F)(F)F)c(Oc3cccc(F)c3)c2)n[nH]c1Nc1cnccn1 [Compound 167, 3-(3-(3-fluorophenoxy)-4-((2,2,2-trifluoroethyl)sulfonamido)phenyl)-5-(pyrazin-2-ylamino)-1H-pyrazole-4-carboxamide]"
< 0.01,> 30,> 30,"C[C@H](Oc1cc(-c2n[nH]c(Nc3cnccn3)c2C(N)=O)ccc1NS(=O)(=O)CC(F)(F)F)c1ccccn1 [Compound 267, 5-[(pyrazin-2-yl)amino]-3-{3-[(1S)-1-(pyridin-2-yl)ethoxy]-4-(2,2,2-trifluoroethanesulfonamido)phenyl]-1H-pyrazole-4-carboxamide]"
< 0.01,> 30,> 30,"CCS(=O)(=O)Nc1ccc(-c2n[nH]c(Nc3cnccn3)c2C(N)=O)cc1 [Compound 108, 3-(4-(ethylsulfonamido)phenyl)-5-(pyrazin-2-ylamino)-1H-pyrazole-4-carboxamide]"
< 0.01,> 30,> 30,"NC(=O)c1c(-c2ccc(NS(=O)(=O)CC(F)F)c(OCc3ccc(F)cc3)c2)n[nH]c1Nc1cccc(C(F)(F)F)n1 [Compound 178, 3-(4-((2,2-difluoroethyl)sulfonamido)-3-((4-fluorobenzyl)oxy)phenyl)-5-((6-(trifluoromethyl)pyridine-2-yl)amino)-1H-pyrazole-4-carboxamide]"
< 0.01,> 30,> 30,"CCS(=O)(=O)Nc1ccc(-c2n[nH]c(Nc3cnccn3)c2C(N)=O)cc1Oc1ccc(Cl)cc1 [Compound 185, 3-(3-(4-chlorophenoxy)-4-(ethylsulfonamido)phenyl)-5-(pyrazin-2-ylamino)-1H-pyrazole-4-carboxamide]"
< 0.01,> 30,> 30,"CCS(=O)(=O)Nc1ccc(-c2n[nH]c(Nc3cccc(C(F)(F)F)n3)c2C(N)=O)cc1Oc1ccc(F)cc1 [Compound 149, 3-(4-(ethylsulfonamido)-3-(4-fluorophenoxy)phenyl)-5-((6-(trifluoromethyl)pyridine-2-yl)amino)-1H-pyrazole-4-carboxamide]"
< 0.01,> 30,> 30,"C[C@H](Oc1cc(-c2n[nH]c(Nc3cc4n(n3)CCOC4)c2C(N)=O)ccc1NS(=O)(=O)C(F)F)c1ccc(F)cc1 [Compound 308, (S)-3-(4-((difluoromethyl)sulfonamido)-3-(1-(4-fluorophenyl)ethoxy)phenyl)-5-((6,7-dihydro-4H-pyrazolo[5,1-c][1,4]oxazin-2-yl)amino)-1H-pyrazole-4-carboxamide]"
< 0.01,> 30,> 30,"CCS(=O)(=O)Nc1ccc(-c2n[nH]c(Nc3cnccn3)c2C(N)=O)cc1O[C@@H](C)c1ccc(F)cc1 [Compound 199, (S)-3-(4-(ethylsulfonamido)-3-(1-(4-fluorophenyl)ethoxy)phenyl)-5-(pyrazin-2-ylamino)-1H-pyrazole-4-carboxamide]"
< 0.01,> 30,> 30,"NC(=O)c1c(-c2ccc(NS(=O)(=O)CC(F)(F)F)cc2)n[nH]c1Nc1ccc(C(F)(F)F)cn1 [Compound 153, 3-(4-((2,2,2-trifluoroethyl)sulfonamido)phenyl)-5-((5-(trifluoromethyl)pyridine-2-yl)amino)-1H-pyrazole-4-carboxamide]"
< 0.01,> 30,> 30,"CCS(=O)(=O)Nc1ccc(-c2n[nH]c(Nc3cnccn3)c2C(N)=O)cc1OCCc1ccccc1F [Compound 211, 3-(4-(ethylsulfonamido)-3-(2-fluorophenethoxy)phenyl)-5-(pyrazin-2-ylamino)-1H-pyrazole-4-carboxamide]"
< 0.01,> 30,> 30,"CCS(=O)(=O)Nc1ccc(-c2n[nH]c(Nc3cnc(OC)cn3)c2C(N)=O)cc1OCc1ccc(F)cc1 [Compound 14, 3-(4-(ethylsulfonamido)-3-((4-fluorobenzyl)oxy)phenyl) 5-((5-methoxypyrazin-2-yl)amino)-1H-pyrazole-4-carboxamide]"
